Laboratory results as given in patent US8168568B1, “Combinatorial therapy for protein signaling diseases” (The United States of America, as represented by the …, priority 2003, dated 2012).

Columns and labels:
Type in all cases: cell-based, human
[1] = tested on: EGFr signaling pathway; test: Reverse phase protein microarray of EGFr pathway nodes in EGF-stimulated colon cancer cells treated with kinase inhibitors; details: CCL-250 cells, drug treatment 30 minutes, then EGF 0.1 μg/mL; FIG. 6A
Description: The epidermal growth factor receptor (EGFr) signaling pathway, which is a well-characterized pathway where interdependence is already known, was investigated. […]. […] In these experiments, colon cancer cells, ATCC CCL-250, which over-express EGFr 25-75% of the time, were cultured. […] Impact of drug compounds on the pathway was evaluated by treating the cells with a drug compound or a combination of drug compounds for 30 minutes. […] Cells were then scraped from the bottom surface of the wells using a pipet tip and placed into mini-centrifuge tubes. The lysates were then vortexed, boiled for 5 minutes, and centrifuged for 20 minutes at 14,000 rpm. The lysates were arrayed using the reverse phase microarray techniques described in Paweletz et al. […] In contrast to forward-phase protein arrays that immobilize the probe, the reverse phase protein array immobilizes the whole repertoire of patient proteins (e.g. by a nitrocellulose substrate) that represent the state of individual tissue cell populations. Probes are then applied to the immobilized proteins. […] The phospho-antibodies bind to the phosphorylated, or activated, form of the protein. The other antibody binds to and is used to determine the total amount of the protein in the sample. Using the values from these two antibodies, the relative activation of that proteins may be calculated as the ratio of phosphorylated protein to total protein.

[2] = tested on: c-erbB1, MEK, and ERK kinases; test: Kinase substrate array time course with and without MEK inhibitor; details: CCL250, 10 uM pretreatment 1 hour, 100 ng/ml EGF; FIG. 18B
Description: Separate aliquots at a series of EGF post treatment time intervals were taken and cell lysates were prepared for kinase substrate array analysis.
To determine if this technology can capture the time-course of linked kinase network events, a series of known connected phosphorylation substrates were analyzed: epidermal growth factor receptor (c-erbB1), MEK, and ERK kinases using a colon cancer cell line (CCL250) with over-expressed c-erbB1 receptor levels. […] When these events are analyzed by reverse phase array, both ERK and MEK phosphorylation show a coordinately linked kinetic profile which is expected since ERK is a direct substrate of MEK kinase (FIG. 18A). […] Phosphorylation of kinase substrates is a transient event, as phosphatases promptly dephosphorylate the substrate as the cascade continues.

[3] = tested on: EGFR; test: EGFR activation time course by reverse phase protein array; details: for EGFR receptor phosphorylation: time course experiments, 100 ng/ml EGF, 10 μM PGE2, or 25 ng/ml TGF-α
Description: For the time course assays, colon cancer cells were plated in 24-well plates (1×10e5 cells/well), grown to 80% confluency, and serum-starved for 24 hours. […] Unstimulated cells were used as a control for basal activity. To assess TGF-inhibition, cells were pretreated with 100 ng/ml neutralizing TGF-α antibody for 1 hour before stimulation. […] To harvest cells at each timepoint, a number of cells were removed from wells by gentle scraping and suspended in 100 μL of heated SDS sample buffer (50% Tissue Protein Extraction Reagent, 48% 2× Tris-Glycine SDS Sample Buffer and 2% β-Mercaptoethanol) containing 10 μL of protease inhibitor cocktail per ml of lysate. Cells were immediately transferred to a chilled tube.
The reverse-phase protein array were as previously described (Paweletz et al). Briefly, cell lysates were subjected to one freeze/thaw cycle followed by vigorous vortexing to ensure complete liberation of proteins from the cytosol and the cell membrane. Immediately prior to spotting onto nitrocellulose slides, the samples were boiled for 5 minutes to ensure complete denaturation. Samples were spun at high speed in a microcentrifuge to remove any remaining cellular debris. Nanoliter amounts of the samples were arrayed onto nitrocellulose coated slides (Schleicher and Schuell Bioscience Inc., Keene, N.H.). Each sample was spotted nine times to form a “square” pattern consisting of three dilutions, left to right (neat, 1:2, 1:4), and three replicates of each dilution, top to bottom. Sample buffer alone was spotted as a negative control.
Slides were prepared for signal development by incubating for 10 minutes in a 10% solution of Mild Re-Blot Plus (Chemicon Intl, Temecula, Calif.) to expose antigenic sites embedded in the nitrocellulose. This was followed by two 5-minute washes in PBS and incubation in a casein-based blocking solution (Applied Biosystems, Foster City, Calif.) for at least 1 hour. Signal was developed using an automated staining system based on avidin/biotin and peroxidase methodologies (DakoCytomation, Carpinteria, Calif.). Staining is completed by a 5-minute incubation with 3,3′diaminobenzidine tetrahydrochloride (DAB) which results in a brown-colored precipitate at the antigen site. After signal development, slides were scanned on an Epson flatbed scanner at 1200 dpi. Scanned images (saved as an inverted grayscale TIFF file in Adobe Photoshop version 5.5) were analyzed with ImageQuant version 5.2 software (Molecular Dynamics, Amersham, UK). The spot intensity after background correction was proportional to the concentration of the target protein. […]
Activation is expressed as the relative intensity of stimulated cells compared with unstimulated cells on reverse phase protein microarray. […]

[4] = tested on: EGF stimulated ATCC CCL-250 cancer cells; test: 10 day colony growth bioassay; details: EGF stimulated CCL-250, FIG. 9
[5] = tested on: COX-2 protein; test: COX-2 protein expression by reverse phase protein array and Western blot; details: colon cancer cells, every 24 hours over 72 hours; data not shown
Description: Lysates that were analyzed by Western blot were evaluated for protein concentration with the BCA Protein Assay Kit (Pierce, Rockford, Ill.). Details of Western analyses are well known. Briefly, equal amounts of proteins were fractionated on 4-20% SDS-PAGE gels and transferred to PVDF membranes. After sequential incubations with primary antibodies and peroxidase-conjugated goat anti-rabbit antibodies (Tropix, Bedford, Mass.), signal was developed using an enhanced chemiluminescent staining system (Tropix, Bedford, Mass.). Protein loading was normalized for phospho- and nonphospho-proteins with the total self-protein and β-actin, respectively.
Protein loading was controlled for by expressing COX-2 protein relative to β-actin.

Compound | shunting via the CREB node (relative expression of CREB) [1] | EGFR receptor phosphorylation [3] | also measured
COc1cccc(-c2cc(=O)c3ccccc3o2)c1N [PD98059, 2-(2′-amino-3′-methoxyphenyl)-oxanaphthalen-4-one] | causes shunting through this node |  | activation of ERK [1]: diminishing the activation of the next node along the pathway, ERK; phosphorylation of c-erbB1, MEK and ERK after EGF [2]: only ERK phosphorylation was effected
TGF-alpha: EGFR ligand used as stimulus |  | can be induced | 
COc1cc2ncnc(Nc3cccc(Cl)c3)c2cc1OC [AG1478, 4-(3-chloroanilino)-6,7-dimethoxyquinazoline] | not seen |  | 
NC(=O)c1nnn(Cc2cc(Cl)c(C(=O)c3ccc(Cl)cc3)c(Cl)c2)c1N [CAI, carboxyamidotriazole] |  |  | inhibition of cell proliferation [4]: no significant-growth inhibition
EGF: recombinant epidermal growth factor, EGFR ligand used as stimulus |  | can be induced | 
CCCCC[C@H](O)/C=C/[C@H]1[C@H](O)CC(=O)[C@@H]1C/C=C\CCCC(=O)O [PGE2, prostaglandin E2] |  | can be induced | EGFR activation with or without TGF-α inhibitor pretreatment ([3]; harvested at 5 minutes, 100 ng/ml neutralizing TGF-α antibody 1 hour, FIG. 11): requirement of TGF-α for the activation of EGFR by PGE2; expression of COX-2 protein relative to β-actin [5]: induced increased expression of COX-2 protein
